The text below walks through data of ChEMBL document CHEMBL3784934, “N-Alkylpyrido[1',2':1,5]pyrazolo-[4,3-d]pyrimidin-4-amines: A new series of negative allosteric modulators of mGlu1/5 with CNS exposure in rodents” (Bioorg Med Chem Lett, 2016).

Holding throughout (assay type): functional, cell-based
Assay [1] deals with Metabotropic glutamate receptor 1 (Rattus norvegicus, UniProt P23385). The assay can be described thus: Negative allosteric modulation of rat mGluR1 expressed in HEK293 cells assessed as inhibition of glutamate induced calcium mobilization by calcium mobilization assay.
Metabotropic glutamate receptor 1 (Rattus norvegicus, UniProt P23385), sequence (P23385 whole entry): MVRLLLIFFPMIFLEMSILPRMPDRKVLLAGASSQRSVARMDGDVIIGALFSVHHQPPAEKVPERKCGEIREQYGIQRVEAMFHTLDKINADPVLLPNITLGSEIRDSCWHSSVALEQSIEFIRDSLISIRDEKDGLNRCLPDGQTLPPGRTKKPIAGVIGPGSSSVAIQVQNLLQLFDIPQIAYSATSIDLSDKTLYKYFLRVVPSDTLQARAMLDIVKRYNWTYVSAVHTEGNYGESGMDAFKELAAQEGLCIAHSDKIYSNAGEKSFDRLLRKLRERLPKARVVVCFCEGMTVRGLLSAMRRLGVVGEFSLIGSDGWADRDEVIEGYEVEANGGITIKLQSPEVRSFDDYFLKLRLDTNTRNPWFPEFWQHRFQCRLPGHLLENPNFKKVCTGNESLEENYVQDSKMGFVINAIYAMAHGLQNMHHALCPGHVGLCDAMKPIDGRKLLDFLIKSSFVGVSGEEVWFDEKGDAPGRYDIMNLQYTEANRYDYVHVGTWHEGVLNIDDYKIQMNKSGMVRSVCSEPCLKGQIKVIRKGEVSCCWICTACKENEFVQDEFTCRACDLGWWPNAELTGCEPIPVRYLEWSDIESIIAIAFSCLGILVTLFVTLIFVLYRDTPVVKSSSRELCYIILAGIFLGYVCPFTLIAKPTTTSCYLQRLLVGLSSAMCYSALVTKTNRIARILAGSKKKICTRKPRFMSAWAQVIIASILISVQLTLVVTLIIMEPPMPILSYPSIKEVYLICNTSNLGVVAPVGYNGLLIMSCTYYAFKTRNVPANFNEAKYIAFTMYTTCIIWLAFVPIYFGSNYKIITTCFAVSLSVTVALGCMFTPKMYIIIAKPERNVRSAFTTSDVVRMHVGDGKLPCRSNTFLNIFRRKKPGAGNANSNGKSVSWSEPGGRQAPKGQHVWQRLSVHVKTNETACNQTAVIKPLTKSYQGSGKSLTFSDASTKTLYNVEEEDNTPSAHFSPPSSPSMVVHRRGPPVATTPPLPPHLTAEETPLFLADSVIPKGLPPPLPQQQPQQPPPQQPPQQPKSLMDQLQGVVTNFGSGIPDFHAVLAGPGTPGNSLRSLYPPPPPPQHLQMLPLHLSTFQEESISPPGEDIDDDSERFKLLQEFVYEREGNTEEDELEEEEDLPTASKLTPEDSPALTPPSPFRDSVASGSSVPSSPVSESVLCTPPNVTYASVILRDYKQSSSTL
The target in assay [2] is Metabotropic glutamate receptor 1 (Rattus norvegicus) (UniProt P23385). The assay can be described thus: Negative allosteric modulation of rat mGluR1 expressed in HEK293 cells assessed as calcium mobilization at 30 uM by calcium mobilization assay relative to 100 uM glutamate. (In general: A change in cytosolic calcium serves as a functional read-out for many receptors and channels.)
Metabotropic glutamate receptor 1 (Rattus norvegicus), sequence (P23385 19-1199 limits assumed): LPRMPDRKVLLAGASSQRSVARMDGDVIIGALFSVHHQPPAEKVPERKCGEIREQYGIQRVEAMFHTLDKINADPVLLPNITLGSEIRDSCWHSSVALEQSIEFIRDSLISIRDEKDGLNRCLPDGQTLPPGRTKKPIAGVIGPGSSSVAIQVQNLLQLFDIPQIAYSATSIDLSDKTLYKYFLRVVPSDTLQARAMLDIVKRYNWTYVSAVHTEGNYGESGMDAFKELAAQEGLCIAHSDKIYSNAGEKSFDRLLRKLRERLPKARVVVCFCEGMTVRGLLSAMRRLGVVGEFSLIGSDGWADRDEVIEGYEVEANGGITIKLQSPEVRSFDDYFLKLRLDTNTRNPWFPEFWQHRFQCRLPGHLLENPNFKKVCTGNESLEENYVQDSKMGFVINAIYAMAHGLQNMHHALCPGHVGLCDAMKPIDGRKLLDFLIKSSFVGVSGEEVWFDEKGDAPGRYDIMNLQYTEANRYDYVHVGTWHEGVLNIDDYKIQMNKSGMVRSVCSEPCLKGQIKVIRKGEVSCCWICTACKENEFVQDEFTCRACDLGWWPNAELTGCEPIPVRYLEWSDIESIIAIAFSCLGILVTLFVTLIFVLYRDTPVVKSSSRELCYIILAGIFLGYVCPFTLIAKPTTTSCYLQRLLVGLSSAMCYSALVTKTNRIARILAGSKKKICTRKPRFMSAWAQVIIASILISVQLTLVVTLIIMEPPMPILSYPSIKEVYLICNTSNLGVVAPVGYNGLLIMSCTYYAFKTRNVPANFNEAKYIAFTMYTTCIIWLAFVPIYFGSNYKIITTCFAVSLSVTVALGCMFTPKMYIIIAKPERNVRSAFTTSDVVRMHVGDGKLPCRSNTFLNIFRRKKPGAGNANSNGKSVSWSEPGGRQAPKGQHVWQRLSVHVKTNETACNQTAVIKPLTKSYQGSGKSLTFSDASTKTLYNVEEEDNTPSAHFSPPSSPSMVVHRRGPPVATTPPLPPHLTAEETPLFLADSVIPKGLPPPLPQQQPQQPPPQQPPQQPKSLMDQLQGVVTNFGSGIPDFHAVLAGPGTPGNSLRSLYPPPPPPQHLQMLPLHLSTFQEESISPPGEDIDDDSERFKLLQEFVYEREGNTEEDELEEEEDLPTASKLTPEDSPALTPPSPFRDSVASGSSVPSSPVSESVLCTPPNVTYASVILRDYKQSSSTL

For assay [3], the target named is Metabotropic glutamate receptor 5 (Rattus norvegicus, UniProt P31424). The experiment in a line: Negative allosteric modulation of rat mGluR5 expressed in HEK293 cells assessed as inhibition of glutamate induced calcium mobilization by calcium mobilization assay.
Metabotropic glutamate receptor 5 (Rattus norvegicus, UniProt P31424), sequence (P31424 whole entry): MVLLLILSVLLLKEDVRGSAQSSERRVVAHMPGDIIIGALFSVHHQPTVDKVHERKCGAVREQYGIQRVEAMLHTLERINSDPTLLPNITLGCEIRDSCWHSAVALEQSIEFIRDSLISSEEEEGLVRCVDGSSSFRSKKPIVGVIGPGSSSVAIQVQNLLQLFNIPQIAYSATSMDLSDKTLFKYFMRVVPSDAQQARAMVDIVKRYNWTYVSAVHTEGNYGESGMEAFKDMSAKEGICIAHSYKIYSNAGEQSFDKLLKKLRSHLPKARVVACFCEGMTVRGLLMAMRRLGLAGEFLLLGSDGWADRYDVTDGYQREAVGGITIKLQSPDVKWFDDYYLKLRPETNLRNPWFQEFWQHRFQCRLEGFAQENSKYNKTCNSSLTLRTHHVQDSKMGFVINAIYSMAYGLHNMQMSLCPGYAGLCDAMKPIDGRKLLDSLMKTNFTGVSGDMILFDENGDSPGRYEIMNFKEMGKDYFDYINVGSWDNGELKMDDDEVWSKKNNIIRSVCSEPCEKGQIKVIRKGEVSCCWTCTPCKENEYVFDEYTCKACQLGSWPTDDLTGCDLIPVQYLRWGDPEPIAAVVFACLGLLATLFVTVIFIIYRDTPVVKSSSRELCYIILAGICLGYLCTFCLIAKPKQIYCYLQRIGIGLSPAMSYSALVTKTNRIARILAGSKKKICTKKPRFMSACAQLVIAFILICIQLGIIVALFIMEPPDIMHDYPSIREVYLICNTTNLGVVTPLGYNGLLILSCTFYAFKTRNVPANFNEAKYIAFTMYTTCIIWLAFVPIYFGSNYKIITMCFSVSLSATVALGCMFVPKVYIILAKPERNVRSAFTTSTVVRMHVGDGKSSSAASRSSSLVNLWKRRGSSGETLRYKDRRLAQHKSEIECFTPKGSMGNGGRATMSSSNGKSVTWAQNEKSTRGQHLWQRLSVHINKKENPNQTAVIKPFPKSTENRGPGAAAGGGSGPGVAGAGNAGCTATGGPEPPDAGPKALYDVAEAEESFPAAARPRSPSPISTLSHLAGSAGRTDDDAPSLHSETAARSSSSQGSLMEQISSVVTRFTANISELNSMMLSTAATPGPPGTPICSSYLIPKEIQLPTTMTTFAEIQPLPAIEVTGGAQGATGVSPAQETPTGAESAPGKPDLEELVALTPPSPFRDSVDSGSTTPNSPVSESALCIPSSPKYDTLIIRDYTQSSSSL
Assay [4] has as its target Metabotropic glutamate receptor 5 (Rattus norvegicus) (UniProt P31424). The experiment in a line: Negative allosteric modulation of rat mGluR5 expressed in HEK293 cells assessed as calcium mobilization at 30 uM by calcium mobilization assay relative to 100 uM glutamate.
Assay [5] concerns the target Metabotropic glutamate receptor 1 (Homo sapiens, UniProt Q13255). The assay can be described thus: Negative allosteric modulation activity at recombinant human mGluR1a expressed in CHO cells assessed as inhibition of L-glutamate-induced intracellular Ca2+ mobilization.
For assay [6], the target named is Metabotropic glutamate receptor 5 (Homo sapiens, UniProt P41594). The experiment in a line: Negative allosteric modulation activity at recombinant human mGluR5a expressed in CHO cells assessed as inhibition of L-glutamate-induced intracellular Ca2+ mobilization.

Metabotropic glutamate receptor 5 (Rattus norvegicus), sequence (P31424 21-1203 limits assumed): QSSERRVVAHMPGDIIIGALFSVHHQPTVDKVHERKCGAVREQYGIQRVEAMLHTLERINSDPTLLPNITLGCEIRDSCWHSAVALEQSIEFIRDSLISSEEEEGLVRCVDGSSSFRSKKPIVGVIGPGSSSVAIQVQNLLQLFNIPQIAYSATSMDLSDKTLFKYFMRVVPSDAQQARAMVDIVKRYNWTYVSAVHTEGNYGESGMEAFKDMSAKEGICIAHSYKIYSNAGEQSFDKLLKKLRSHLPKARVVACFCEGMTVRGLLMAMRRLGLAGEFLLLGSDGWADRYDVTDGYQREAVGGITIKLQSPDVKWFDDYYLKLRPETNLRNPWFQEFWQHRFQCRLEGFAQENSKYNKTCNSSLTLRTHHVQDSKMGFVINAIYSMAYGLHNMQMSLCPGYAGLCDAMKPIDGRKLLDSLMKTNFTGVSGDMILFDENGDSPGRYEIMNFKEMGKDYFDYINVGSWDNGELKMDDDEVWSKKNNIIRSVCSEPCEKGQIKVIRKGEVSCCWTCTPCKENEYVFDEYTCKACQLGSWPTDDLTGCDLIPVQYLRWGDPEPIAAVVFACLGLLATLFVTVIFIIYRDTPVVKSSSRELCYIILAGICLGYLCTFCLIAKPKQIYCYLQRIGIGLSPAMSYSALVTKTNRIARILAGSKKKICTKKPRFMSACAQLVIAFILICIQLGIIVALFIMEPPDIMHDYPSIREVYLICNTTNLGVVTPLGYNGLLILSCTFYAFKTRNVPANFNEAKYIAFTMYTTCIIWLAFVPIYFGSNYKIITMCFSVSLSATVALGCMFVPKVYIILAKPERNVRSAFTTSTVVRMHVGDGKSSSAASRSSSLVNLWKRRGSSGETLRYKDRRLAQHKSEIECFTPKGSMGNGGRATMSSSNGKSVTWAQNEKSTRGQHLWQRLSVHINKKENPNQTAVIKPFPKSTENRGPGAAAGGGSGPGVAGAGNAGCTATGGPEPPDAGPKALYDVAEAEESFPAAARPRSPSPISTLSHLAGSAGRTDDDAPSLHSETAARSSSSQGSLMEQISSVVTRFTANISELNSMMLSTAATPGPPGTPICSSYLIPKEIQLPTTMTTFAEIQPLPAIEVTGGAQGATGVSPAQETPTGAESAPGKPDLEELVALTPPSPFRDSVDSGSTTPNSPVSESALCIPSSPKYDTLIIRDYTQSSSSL

Regarding `C[C@H]1CC[C@H](Nc2nc(N)nc3c2nn2ccccc32)CC1`, the IC50 in assay [1] was 5.6 µM; in assay [3] (read-out: IC50), above 30 µM; in assay [3] (read-out: pIC50 (converted)) it was above 31.6 µM. In assay [2], the %max stood at 0.58%.

Take `CCC(C)(C)Nc1ncnc2c1nn1ccccc21`: the results for the IC50 in assay [1], in assay [3] (read-out: IC50) and in assay [3] (read-out: pIC50 (converted)) were above 10 µM, above 30 µM and above 31.6 µM, respectively. The %max in assay [2] came out at 12.6%.

`c1ccn2nc3c(NC45CC6CC(CC(C6)C4)C5)ncnc3c2c1`: the IC50 in assay [1] is 0.148 µM; in assay [3] (read-out: IC50), 2.36 µM. Further, the %max in assay [2] was determined as 2.6%; in assay [4], 4.8%.

With `CC1(C)[C@@H]2CC[C@]1(C)[C@@H](Nc1ncnc3c1nn1ccccc31)C2`, the %max in assay [2] is 7.1%. For the same molecule, the results for the IC50 in assay [3] (read-out: IC50) and in assay [3] (read-out: pIC50 (converted)) were above 30 µM and above 31.6 µM, respectively.

On to `Cc1nc(N[C@@H]2C[C@@H]3C[C@H]([C@H]2C)C3(C)C)c2nn3ccccc3c2n1`, for which the IC50 in assay [1] was found to be 0.759 µM. In addition, the %max in assay [2] is 2.4%.

Take `c1ccn2nc3c(NC4C5CC6CC(C5)CC4C6)ncnc3c2c1` (configuration not stated): the IC50 in assay [1] was 0.084 µM; in assay [3] (read-out: IC50), 1.75 µM. The %max in assay [2] worked out at 2.9%; in assay [4], 3.4%.

As to `C[C@H](Nc1ncnc2c1nn1ccccc21)C1CC1`, the IC50 is above 30 µM in assay [1], above 30 µM in assay [3] (read-out: IC50) and above 31.6 µM in assay [3] (read-out: pIC50 (converted)).

On to `OC12CC3CC(C1)CC(Nc1ncnc4c1nn1ccccc41)(C3)C2`, for which the results for the IC50 in assay [1], in assay [3] (read-out: IC50) and in assay [3] (read-out: pIC50 (converted)) were 0.484 µM, above 30 µM and above 31.6 µM, respectively. Besides, the %max in assay [2] is 2.4%.

Consider `C[C@@H]1[C@@H](Nc2ncnc3c2nn2ccccc32)C[C@H]2C[C@@H]1C2(C)C`, for which the values for the IC50 in assay [1] and in assay [3] (read-out: IC50) were 0.233 µM and 2.09 µM, respectively. In addition, the %max was determined as 3.1% in assay [2] and 2.3% in assay [4].

Consider `CN(C)c1nc(N[C@H]2CC[C@H](C)CC2)c2nn3ccccc3c2n1`, for which the IC50 is above 30 µM in assay [1], above 30 µM in assay [3] (read-out: IC50) and above 31.6 µM in assay [3] (read-out: pIC50 (converted)).

With `FC1(F)CCC(Nc2ncnc3c2nn2ccccc32)CC1`, the figures for the IC50 in assay [1], in assay [3] (read-out: IC50) and in assay [3] (read-out: pIC50 (converted)) were above 10 µM, above 30 µM and above 31.6 µM, respectively. Also, in assay [2], the %max was found to be 39%.

On to `C[C@@H](Nc1ncnc2c1nn1ccccc21)C(C)(C)C`, for which the %max in assay [2] was found to be 2.2%. Further, the IC50 is above 30 µM in assay [3] (read-out: IC50) and above 31.6 µM in assay [3] (read-out: pIC50 (converted)).

Turning to `CNc1nc(N[C@H]2CC[C@H](C)CC2)c2nn3ccccc3c2n1`, the IC50 in assay [1] is above 30 µM; in assay [3] (read-out: IC50) it was above 30 µM; in assay [3] (read-out: pIC50 (converted)), above 31.6 µM.

In the case of `COCCNc1nc(N[C@H]2CC[C@H](C)CC2)c2nn3ccccc3c2n1`, the IC50 in assay [1] is above 30 µM; in assay [3] (read-out: IC50), above 30 µM; in assay [3] (read-out: pIC50 (converted)) it was above 31.6 µM.

On to `OCCSc1nc2c(c(NC3Cc4ccccc4C3)n1)CCCC2`, for which the IC50 in assay [5] was 0.028 µM; in assay [6], above 9.1 µM.

Take `CC(C)(C)CCNc1ncnc2c1nn1ccccc21`: the IC50 was 0.341 µM in assay [1] and 3.6 µM in assay [3] (read-out: IC50). Also, the %max in assay [2] was 1.5%; in assay [4], 1.3%.

For `C[C@H]1CC[C@H](Nc2ncnc3c2nn2ccccc32)CC1`, the IC50 in assay [1] worked out at 0.093 µM; in assay [3] (read-out: IC50) it was 2.27 µM. Moreover, the %max in assay [2] and in assay [4] was 2% throughout.

Turning to `c1ccn2nc3c(N[C@H]4C[C@@H]5CC[C@H]4C5)ncnc3c2c1`, the IC50 in assay [1] was 0.232 µM; in assay [3] (hek293, read-out: IC50) it was above 10 µM; in assay [3] (read-out: pIC50 (converted)) it was above 10 µM. Besides, the %max was 2.5% in assay [2] and 9.9% in assay [4].

Take `Cc1nc(N[C@H]2CC[C@H](C)CC2)c2nn3ccccc3c2n1`: in assay [2], the %max was determined as 2.6%. Besides, the IC50 in assay [3] (read-out: IC50) is above 30 µM; in assay [3] (read-out: pIC50 (converted)), above 31.6 µM.

For `Cc1nc(N[C@H]2C[C@H]3CC[C@@]2(C)C3(C)C)c2nn3ccccc3c2n1`, in assay [2], the %max was determined as 7.1%. The IC50 in assay [3] (read-out: IC50) was above 30 µM; in assay [3] (read-out: pIC50 (converted)), above 31.6 µM.

For `C[C@H](Nc1ncnc2c1nn1ccccc21)C(C)(C)C`, in assay [2], the %max is -0.2%. Besides, the figures for the IC50 in assay [3] (read-out: IC50) and in assay [3] (read-out: pIC50 (converted)) were above 30 µM and above 31.6 µM, respectively.

For `c1ccn2nc3c(NC4CCCCCCC4)ncnc3c2c1`, the IC50 in assay [1] amounted to 0.094 µM; in assay [3] (read-out: IC50), 3.29 µM. In addition, the results for the %max in assay [2] and in assay [4] were 1.9% and 1.3%, respectively.

By pIC50 is commonly meant the IC50 on a negative log10 scale, so that one unit is a factor of ten. On to `C[C@H](Nc1ncnc2c1nn1ccccc21)C1CCCCC1`, for which the figures for the %max in assay [2] and in assay [4] were 0.9% and 61.8%, respectively. In assay [3] (hek293), the negative-log IC50 (pIC50) is below 5. In assay [3] (read-out: IC50), the IC50 was above 10 µM.

For `c1ccc2c(c1)CC(Nc1ncnc3c1nn1ccccc31)C2`, the IC50 in assay [1] is 0.247 µM. In addition, the %max in assay [2] worked out at 2.1%; in assay [4] it was 17.2%.

As to `c1ccn2nc3c(NC4CCCCC4)ncnc3c2c1`, the %max in assay [2] is -0.5%. The IC50 is above 30 µM in assay [3] (read-out: IC50) and above 31.6 µM in assay [3] (read-out: pIC50 (converted)).

Regarding `C[C@@H]1[C@H]2C[C@@H](C[C@H]1Nc1ncnc3c1nn1ccccc31)C2(C)C`, the IC50 in assay [1] is 0.152 µM; in assay [3] (hek293, read-out: IC50) it was above 10 µM; in assay [3] (read-out: pIC50 (converted)), above 10 µM. Further, the %max in assay [2] was 2.7%; in assay [4], 9%.

On to `CC(C)Nc1nc(N[C@H]2CC[C@H](C)CC2)c2nn3ccccc3c2n1`, for which the IC50 in assay [1] was above 30 µM; in assay [3] (read-out: IC50), above 30 µM; in assay [3] (read-out: pIC50 (converted)), above 31.6 µM.

As to `C[C@@H](Nc1ncnc2c1nn1ccccc21)C1CCCCC1`, the %max turned out to be 2.4% in assay [2] and 18.4% in assay [4]. Also, the pIC50 in assay [3] (hek293) is on record as below 5. Besides, in assay [3] (read-out: IC50), the IC50 is above 10 µM.

Take `C[C@@H](Nc1ncnc2c1nn1ccccc21)C1CC1`: the values for the IC50 in assay [1], in assay [3] (read-out: IC50) and in assay [3] (read-out: pIC50 (converted)) were above 10 µM, above 30 µM and above 31.6 µM, respectively. Further, in assay [2], the %max is 71.6%.

Consider `c1ccn2nc3c(NC4CCCCCC4)ncnc3c2c1`, for which the IC50 in assay [1] was 0.225 µM; in assay [3] (hek293, read-out: IC50), above 10 µM; in assay [3] (read-out: pIC50 (converted)), above 10 µM. Further, the %max in assay [2] is 2%; in assay [4], 20%.
